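Step 1: Grow cells in 96-well plates. Step 2: Expose to compound for 48 hours at 5 concentrations. Step 3: Interpolate endpoints linearly; if unreached, use highest concentration. The concentration for 50% growth inhibition is given as GI50. The concentration for full growth arrest is given as TGI.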
Legend:
Assay in all cases: growth of human tumour cells (NCI), 48 h
[1] = test system: OVCAR-4 ovarian
[2] = test system: M14 melanoma
[3] = test system: NCI-H23 lung
[4] = test system: SF-539 CNS
[5] = test system: KM12 colon
[6] = test system: HCC-2998 colon
[7] = test system: SK-OV-3 ovarian
[8] = test system: SR leukemia
[9] = test system: HS 578T breast
[10] = test system: A498 renal

SMILES | TGI [1] [µM] | TGI [2] [µM] | TGI [3] [µM] | TGI [4] [µM] | TGI [5] [µM] | TGI [6] [µM] | TGI [7] [µM] | TGI [8] [µM] | TGI [9] [µM] | TGI [10] [µM] | GI50 [3] [µM] | GI50 [4] [µM] | GI50 [9] [µM] | GI50 [7] [µM] | GI50 [10] [µM] | GI50 [1] [µM] | GI50 [2] [µM] | GI50 [5] [µM] | GI50 [6] [µM] | GI50 [8] [µM]
Cc1nnc2n1N=C(c1ccc(-c3ccc([N+](=O)[O-])cc3)o1)CS2 | > 100 | > 100 | > 100 | > 100 | > 100 | > 100 | > 100 | > 100 | – | – | – | – | – | – | – | – | – | – | – | –
Oc1cc2c(cc1C(c1ccc3c(c1)OCO3)N1CCN(C(c3ccc4c(c3)OCO4)c3cc4c(cc3O)OCO4)CC1)OCO2 (stereo unspecified) | 16.5 | 27.5 | 35.4 | 33.9 | 30.8 | – | 94.8 | 14.6 | 30.5 | – | – | – | – | – | – | – | – | – | – | –
CN(C)CCC(/C=C/c1ccccc1)=N\Nc1ccc(Cl)cc1 | 21.7 | 12.5 | 20.9 | 5.32 | 10.9 | 3.53 | 13.4 | – | – | 21.8 | – | – | – | – | – | – | – | – | – | –
COC(=O)[C@@H]1[C@H](O)[C@H](C)[C@H](O)[C@H](C)/C=C\C=C(C)C(=O)Nc2c(C)c(OC(C)=O)c3c(c2O)C(=O)C(C)=C2OCOC(=C23)C(C)=C[C@@](C)(O)[C@H](O)[C@@H](C)[C@H]1OC(C)=O | > 100 | > 100 | > 100 | – | > 100 | – | – | > 100 | > 100 | – | – | – | – | – | – | – | – | – | – | –
COC(=O)c1ccc(NC(N)=NCC(C)(C)COc2ccc(C(F)(F)F)cc2)nc1 | – | – | 3.09 | 3.13 | – | – | 3.45 | – | 4.33 | 5.82 | 1.45 | 1.71 | 1.97 | 1.8 | 1.94 | – | – | – | – | –
CC1NCCc2c1[nH]c1cc(O)ccc21 (stereo unspecified) | > 100 | > 100 | > 100 | > 100 | > 100 | > 100 | > 100 | – | – | > 100 | – | – | – | – | – | – | – | – | – | –
Cc1ccccc1NC(=O)C(=O)CC(=O)C1CCOC1=O (stereo unspecified) | > 100 | > 100 | > 100 | > 100 | > 100 | > 100 | > 100 | – | – | > 100 | – | – | – | – | – | – | – | – | – | –
COC1C(O)CC(OC2CC(OC3CC(O[C@@H]4C(=O)c5c(cc6cc(OC7CC(OC8CC(O)C(O)C(C)O8)C(O)C(C)O7)c(C)c(O)c6c5O)C[C@H]4[C@H](OC)C(=O)[C@@H](O)[C@@H](C)O)OC(C)C3O)OC(C)C2O)OC1C (stereo partly specified) | > 100 | 0.116 | < 0.0442 | 0.0312 | > 12 | 0.114 | > 100 | 0.558 | – | 0.0827 | < 0.0189 | – | – | – | < 0.01 | – | – | – | – | –
CCP(C)(C)=O | > 100 | > 100 | > 100 | > 100 | > 100 | > 100 | > 100 | – | – | > 100 | – | – | – | – | – | – | – | – | – | –
COc1cc2oc(-c3cccc(C(=O)Nc4ccc(C)cc4)c3)cc(=O)c2c(OC)c1OC | > 100 | 2.23 | 51.4 | 10.5 | > 100 | 17.8 | 68.4 | 40.6 | > 100 | – | 4.43 | 2.58 | 4.61 | 3.13 | – | 2 | 0.503 | 3.66 | 3.53 | 2.53
NC(=NCCO)c1ccc(N2CCCN(c3ccc(C(N)=NCCO)cc3)CC2)cc1 | > 100 | > 100 | > 100 | – | > 100 | > 100 | – | – | – | – | > 100 | – | – | – | – | > 100 | > 100 | > 100 | > 100 | –
C/C=C/C=C/CCCCCCCCCCCCC[C@]1(OC)C=CC(CC(=O)OC)OO1 (stereo partly specified) | 25.9 | 31.9 | 36.8 | 35.3 | 36.3 | 47.9 | 81 | – | – | – | 19.1 | – | – | – | – | 12.5 | – | 17.9 | 24.3 | –
Cc1ccc(S(=O)(=O)N[C@@H](Cc2ccccc2)C(=O)CCl)cc1 | 42.6 | 63.1 | 51.4 | 5.68 | 38 | 21.8 | > 100 | – | 64.1 | – | 20.5 | 2.26 | 21.2 | 47.5 | – | 16.6 | 19.9 | 18.2 | 1.03 | –
CC(C)(C)c1cc(-c2c3nc(c(-c4cc(C(C)(C)C)cc(C(C)(C)C)c4)c4ccc([nH]4)c(-c4cc(C(C)(C)C)cc(C(C)(C)C)c4)c4nc(c(-c5cc(C(C)(C)C)cc(C(C)(C)C)c5)c5ccc2[nH]5)C=C4)C=C3)cc(C(C)(C)C)c1 | > 100 | > 100 | > 100 | > 100 | > 100 | > 100 | > 100 | > 100 | – | > 100 | – | – | – | – | – | – | – | – | – | –
Cc1cc(Cl)cc2c1NC(=O)C2(O)CC(=O)c1ccc(F)cc1 (stereo unspecified) | 98.1 | > 100 | > 100 | > 100 | > 100 | > 100 | > 100 | – | – | – | – | – | – | – | – | – | – | – | – | –
CCOC(=O)C1=C(C)N(NC(=O)OC)C2(N)N(NC(=O)OC)C(C)=C(C(=O)OCC)C12C#N (stereo unspecified) | > 100 | > 100 | – | > 100 | > 100 | > 100 | > 100 | > 100 | – | > 100 | – | – | – | – | – | – | – | – | – | –
CCOC(=O)C1=C(c2ccccc2)NC(c2ccccc2)=C(C(=O)OCC)c2c1c(=O)cc[nH]c2=O | > 100 | > 100 | > 100 | > 100 | > 100 | > 100 | > 100 | > 100 | – | – | – | – | – | – | – | – | – | – | – | –
OCCSCC/C(=N\N=C(/CCSCCO)c1ccccc1)c1ccccc1 | > 100 | > 100 | > 100 | > 100 | > 100 | > 100 | > 100 | – | – | – | – | – | – | – | – | – | – | – | – | –
C=C(CN(C)Cc1ccccc1)c1ccc(C(=O)Nc2ccccc2N)cc1 | > 50 | 41.2 | 7.93 | 12.1 | 7.26 | – | 14.4 | > 50 | 33.6 | – | 0.397 | 2.02 | 3.66 | 5.28 | – | 8.28 | 13.4 | 1.23 | – | 2.87
COc1ccc(C(=O)C/C(=N/NC(N)=S)C(=O)Nc2ccccc2)cc1 | > 100 | > 100 | > 100 | > 100 | > 100 | > 100 | > 100 | – | – | > 100 | – | – | – | – | – | – | – | – | – | –
C=C[Si](C)(C)COC(=O)/C(C#N)=C/C=C/c1ccccc1 | > 100 | > 100 | > 100 | > 100 | > 100 | > 100 | > 100 | 79.9 | – | – | – | – | – | – | – | – | – | – | – | –
